Assay: Stopped-flow kinetic analysis of catalytic dismutation of superoxide
Type: biochemical
Conditions: pH=8.1 and 21° C., 80 mM Hepes buffer, absorbance at 245 nm
Source text: Stopped-flow kinetic analysis is an accurate and direct method for quantitatively monitoring the decay rates of superoxide in water. The stopped-flow kinetic analysis is suitable for screening compounds for SOD activity and catalytic activity of the compounds or complexes of the present invention for dismutating superoxide, as shown by stopped-flow analysis, correlate to treating the above disease states and disorders. […]
Water for buffer solutions was delivered from an in-house deionized water system to a Barnstead Nanopure Ultrapure Series 550 water system and then double distilled, first from alkaline potassium permanganate and then from a dilute EDTA solution. […] This system produces deoxygenated water that can be measured to have a conductivity of less than 2.0 nanomhos/cm^2.
The stopped-flow spectrometer system was designed and manufactured by Kinetic Instruments Inc. (Ann Arbor, Mich.) and was interfaced to a MAC IICX personal computer. […] Since the published extinction coefficient of superoxide in H2O at 245 nm is ˜2250 M^−1 cm^−1 (1), an initial absorbance value of approximately 0.3-0.5 would be expected for a 2-cm path length cell, and this was observed experimentally. […]

Which “catalytic rate constant for dismutation of superoxide (kcal)” value does the source give for `OCCCC1NCCNCCNCCNCCNC1CCCO.[Cl][Mn][Cl]` (stereo not drawn) [Example 1, [Manqanese(II)dichloro (trans-2,3-bis(3-hydroxypropyl)-1,4,7,10,13-pentaazacyclopentadecane)]] here?
The value was 1.8e+07 M⁻¹ s⁻¹.
